Here are results for 80 compounds from PubChem BioAssay AID2202555 (NIEHS Division of Translational Toxicology (DTT)).

Records with an inconclusive call do not appear. The source made the active and inactive calls. The rule behind the calls is not given here.

The first series relates to rat and mouse 2-year carcinogenicity bioassay, tumor evidence. Put plainly: Consolidated carcinogenicity assay summary data. To be noted: Route (rodents): Dosed feed. The text has this: Cancer Evaluation Criteria
The National Toxicology Program describes the results of individual experiments on a chemical agent and notes the strength of the evidence for conclusions regarding each study. […] Other organizations, such as the International Agency for Research on Cancer, assign a strength of evidence for conclusions based on an examination of all available evidence, including animal studies such as those conducted by the NTP, epidemiologic studies, and estimates of exposure. Thus, the actual determination of risk to humans from chemicals found to be carcinogenic in laboratory animals requires a wider analysis that extends beyond the purview of these studies.
Five categories of evidence of carcinogenic activity are used in the Technical Report series to summarize the strength of evidence observed in each experiment: two categories for positive results (clear evidence and some evidence); one category for uncertain findings (equivocal evidence); one category for no observable effects (no evidence); and one category for experiments that cannot be evaluated because of major flaws (inadequate study). These categories of interpretative conclusions were first adopted in June 1983 and then revised on March 1986 for use in the Technical Report series to incorporate more specifically the concept of actual weight of evidence of carcinogenic activity. For each separate experiment (male rats, female rats, male mice, female mice), one of the following five categories is selected to describe the findings. These categories refer to the strength of the experimental evidence and not to potency or mechanism.
For studies showing multiple chemical-related neoplastic effects that if considered individually would be assigned to different levels of evidence categories, the following convention has been adopted to convey completely the study results. In a study with clear evidence of carcinogenic activity at some tissue sites, other responses that alone might be deemed some evidence are indicated as "were also related" to chemical exposure. In studies with clear or some evidence of carcinogenic activity, other responses that alone might be termed equivocal evidence are indicated as "may have been" related to chemical exposure.
When a conclusion statement for a particular experiment is selected, consideration must be given to key factors that would extend the actual boundary of an individual category of evidence. Such consideration should allow for incorporation of scientific experience and current understanding of long-term carcinogenesis studies in laboratory animals, especially for those evaluations that may be on the borderline between two adjacent levels. These considerations should include:
- adequacy of the experimental design and conduct;
- occurrence of common versus uncommon neoplasia;
- progression (or lack thereof) from benign to malignant neoplasia as well as from preneoplastic to neoplastic lesions;
- some benign neoplasms have the capacity to regress but others (of the same morphologic type) progress. At present, it is impossible to identify the difference. Therefore, where progression is known to be a possibility, the most prudent course is to assume that benign neoplasms of those types have the potential to become malignant;
- combining benign and malignant tumor incidences known or thought to represent stages of progression in the same organ or tissue;
- latency in tumor induction;
- multiplicity in site -specific neoplasia;
- supporting information from proliferative lesions (hyperplasia) in the same site of neoplasia or in other experiments (same lesion in another sex or species);
- presence or absence of dose relationships;
- statistical significance of the observed tumor increase;
- concurrent control tumor incidence as well as the historical control rate and variability for a specific neoplasm;
- survival-adjusted analyses and false positive or false negative concerns;
- structure-activity correlations; and
[…]
For `Cc1ccccc1[N+](=O)[O-]`, the carcinogen call is “active; clear evidence”.
Regarding `Cc1ccc(N)cc1N`, the carcinogen call was “active; clear evidence”.
On the same count and under the same terms, the entry for `O=[N+]([O-])c1ccc2nc[nH]c2c1` is “active; no evidence”.
`Nc1cc(S(=O)(=O)O)cc2cc(S(=O)(=O)O)c(N=Nc3ccc(-c4ccc(N=Nc5c(S(=O)(=O)O)cc6cc(S(=O)(=O)O)cc(N)c6c5O)cc4)cc3)c(O)c12`: the carcinogen call is “active; clear evidence”.
Same read-out and setting: then `CCCCCCCCS(=O)C(C)Cc1ccc2c(c1)OCO2` (stereo not given), with “active; no evidence”.
Take `COP(=O)(OC)O/C(=C\Cl)c1cc(Cl)c(Cl)cc1Cl`: the carcinogen call is “active; no evidence”.
On to `Nc1ncc([N+](=O)[O-])s1`, for which the carcinogen call was “active; clear evidence”.
As for `NC(=O)NN=Cc1ccc([N+](=O)[O-])o1`, the carcinogen call is “active; equivocal evidence”.
On the same count and under the same terms, then `Cc1cccc(C)c1N`, with “active; clear evidence”; and `CCCCC(CC)COC(=O)c1ccccc1C(=O)OCC(CC)CCCC` (stereo not given), with “active; clear evidence”.
As to `Cc1cnc[nH]1`, the carcinogen call is “active; no evidence”.
Regarding `Cc1ccc([N+](=O)[O-])cc1`, the carcinogen call is “active; equivocal evidence”.
Take `CN(C)c1ccc(C(c2ccccc2)c2ccc(N(C)C)cc2)cc1`: the carcinogen call was “active; equivocal evidence”.
Consider `CN(C)C(=O)Nc1ccc(Cl)cc1`, for which the carcinogen call is “active; clear evidence”.
Regarding `O=C1Nc2ccc(Cl)cc2C(c2ccccc2)=NC1O` (stereo not given), the carcinogen call is “active; equivocal evidence”.
In the case of `O=C1CN(N=Cc2ccc([N+](=O)[O-])o2)C(=O)N1`, the carcinogen call is “active; some evidence”.
Consider `O=C1OC(c2ccc(O)cc2)(c2ccc(O)cc2)c2ccccc21`, for which the carcinogen call was “active; clear evidence”.
Turning to `O=c1c(-c2ccc(O)cc2)coc2cc(O)cc(O)c12`, the carcinogen call was “active; no evidence”.
Same read-out and setting: then `CCCCC(CC)COC(=O)CCCCC(=O)OCC(CC)CCCC` (stereo not given), with “active; no evidence”; and `ClC1(Cl)C2(Cl)C3(Cl)C4(Cl)C(Cl)(Cl)C5(Cl)C3(Cl)C1(Cl)C5(Cl)C24Cl` (stereo not given), with “active; clear evidence”.
Turning to `Brc1c(Br)c(Br)c(Oc2c(Br)c(Br)c(Br)c(Br)c2Br)c(Br)c1Br`, the carcinogen call was “active; some evidence”.
Turning to `Cc1ccc(N=Nc2c(O)ccc3ccccc23)c([N+](=O)[O-])c1`, the carcinogen call is “active; some evidence”.
For `COc1ccc(C)cc1N`, the carcinogen call was “active; clear evidence”.
For `Cc1ccccc1N`, the carcinogen call was “active; clear evidence”.
For the compound `CCn1cc(C(=O)O)c(=O)c2ccc(C)nc21`, the carcinogen call was “active; clear evidence”.
For `OC(c1ccc(Cl)cc1)(c1ccc(Cl)cc1)C(Cl)(Cl)Cl`, the carcinogen call is “active; no evidence”.
Regarding `O=[N+]([O-])c1ccc2c3c(cccc13)CC2`, the carcinogen call is “active; clear evidence”.
Still for that read-out and setting: then `Nc1cccc2c(N)cccc12`, with “active; no evidence”; and `CN(C)c1ccc(Cc2ccc(N(C)C)cc2)cc1`, with “active; clear evidence”.
As to `O=C(O)C(F)(F)C(F)(F)C(F)(F)C(F)(F)C(F)(F)C(F)(F)C(F)(F)F`, the carcinogen call was “active; clear evidence”.
In the case of `Nc1cc(Cl)c(N)c(Cl)c1`, the carcinogen call is “active; no evidence”.
For the compound `Nc1ccccc1`, the carcinogen call is “active; clear evidence”.
Turning to `CNc1ccc(N(CCO)CCO)cc1[N+](=O)[O-]`, the carcinogen call is “active; equivocal evidence”.
Consider `Nc1ccc2c(c1)C(=O)c1ccccc1C2=O`, for which the carcinogen call is “active; clear evidence”.
Consider `Nc1c(Br)cc(Br)c2c1C(=O)c1ccccc1C2=O`, for which the carcinogen call was “active; clear evidence”.
On the same count and under the same terms, then `O=c1c(O)c(-c2ccc(O)c(O)c2)oc2cc(O)cc(O)c12`, with “active; some evidence”.
Regarding `O=C(c1ccccc1)c1ccccc1`, the carcinogen call was “active; some evidence”.
On the same count and under the same terms, the entry for `O=Nc1ccc(Nc2ccccc2)cc1` is “active; clear evidence”.
With `Cc1ccc2c(c1[N+](=O)[O-])C(=O)c1ccccc1C2=O`, the carcinogen call is “active; clear evidence”.
Still for that read-out and setting: then `CCCN(CCC)c1c([N+](=O)[O-])cc(C(F)(F)F)cc1[N+](=O)[O-]`, with “active; no evidence”; and `Nc1ccc(Cl)cc1N`, with “active; clear evidence”; and `CCOC(=O)C(O)(c1ccc(Cl)cc1)c1ccc(Cl)cc1`, with “active; equivocal evidence”.
As for `[O-]/[N+](=N\O)c1ccccc1`, the carcinogen call is “active; clear evidence”.
For the compound `O=[N+]([O-])c1ccc(Oc2ccc(Cl)cc2Cl)cc1`, the carcinogen call was “active; no evidence”.

The series is the same for the next values; noted with them: Route (rodents): Dosed water.
Regarding `[O-][Cl+2]([O-])O`, the carcinogen call is “active; some evidence”.
In the case of `CC(C)(C)O`, the carcinogen call was “active; some evidence”.

The series is the same for the next values; noted with them: Route (rodents): Gavage.
Consider `COc1c2occc2cc2ccc(=O)oc12`, for which the carcinogen call was “active; clear evidence”.
Take `CC=CC=CC=O`: the carcinogen call is “active; clear evidence”.
For `ClCc1cccnc1`, the carcinogen call is “active; clear evidence”.
For the compound `O=P(OCCCl)(OCCCl)OCCCl`, the carcinogen call is “active; clear evidence”.
Same read-out and setting: the entry for `ClC(Br)Br` is “active; no evidence”; for `c1ccc2occc2c1` it is “active; no evidence”.
For the compound `CN(C)c1ccc2nc3ccc(=[N+](C)C)cc-3sc2c1`, the carcinogen call was “active; some evidence”.
For `O=Cc1ccc(CO)o1`, the carcinogen call is “active; no evidence”.
As to `OCC1CO1` (stereo not given), the carcinogen call is “active; clear evidence”.
Same read-out and setting: then `CN(C)c1ccccc1`, with “active; some evidence”.
For `ClC(Cl)C(Cl)(Cl)Cl`, the carcinogen call was “active; equivocal evidence”.
As to `C=CC(=C)CCC=C(C)C`, the carcinogen call was “active; clear evidence”.
For the compound `c1cc(OCC2CO2)cc(OCC2CO2)c1` (stereo not given), the carcinogen call is “active; clear evidence”.
Same read-out and setting: then `CC(C)=CCl`, with “active; clear evidence”.
`O=[N+]([O-])c1ccc(Nc2ccc(Nc3ccccc3)c(S(=O)(=O)O)c2)c([N+](=O)[O-])c1`: the carcinogen call is “active; no evidence”.
`ClCC(Cl)CCl`: the carcinogen call was “active; clear evidence”.
With `CC1=CC(=O)CC(C)(C)C1`, the carcinogen call is “active; some evidence”.
In the case of `OC(O)C(Cl)(Cl)Cl`, the carcinogen call was “active”.
On to `ClCC(Cl)(Cl)Cl`, for which the carcinogen call was “active; equivocal evidence”.
Still for that read-out and setting: the entry for `COc1ccc(N)c(C)c1` is “active; clear evidence”; for `CC(C)CCC[C@@H](C)[C@H]1CC[C@H]2[C@@H]3CC=C4C[C@@H](OC(=O)Cc5ccc(N(CCCl)CCCl)cc5)CC[C@]4(C)[C@H]3CC[C@]12C` it is “active; no evidence”; for `COC(N)=O` it is “active; clear evidence”.
Same read-out and setting: then `CC(Cl)CCl` (stereo not given), with “active; no evidence”.
On to `C[C@]12C/C(=C/O)C(=O)C[C@@H]1CC[C@@H]1[C@@H]2CC[C@@]2(C)[C@H]1CC[C@]2(C)O`, for which the carcinogen call is “active; equivocal evidence”.

Still in this series, the particulars now being: Route (rodents): Gavage; Second Route: Dosed Feed.
On to `COP(=O)(OC)OC=C(Cl)Cl`, for which the carcinogen call was “active; some evidence”.

Staying with this series, now noted: Route (rodents): Inhalation.
On to `ClCCl`, for which the carcinogen call was “active; some evidence”.
Same read-out and setting: the entry for `C=C(C)C` is “active; some evidence”; for `C1CCOC1` it is “active; some evidence”; for `CC(O)COC(C)(C)C` (stereo not given) it is “active; equivocal evidence”.
For the compound `O.O.O.O.O.O.O.O=S(=O)([O-])[O-].[Co+2]`, the carcinogen call is “active; some evidence”.
Regarding `ClC(Cl)=C(Cl)Cl`, the carcinogen call was “active; clear evidence”.
The same measure, in the same setting: the entry for `CC1CO1` (stereo not given) is “active; some evidence”.

Staying with this series, now noted: Route (rodents): Inhalation; Second Route: Gavage.
In the case of `ClCC(Br)CBr` (stereo not given), the carcinogen call is “active; clear evidence”.

The same series, now with this note: Route (rodents): Topical.
Turning to `CC1=CC(C)(C)Nc2ccccc21`, the carcinogen call is “active; some evidence”.
